Test results as given in US6774142B2, “Inhibition by 3-deoxyflavonoids of T-lymphocyte activation and therapies related thereto” (priority 2001, dated 2004).

Key:
[1] = tested on: chronic Type 2 diabetic rats; test: Blood glucose in chronic Type 2 diabetic rats, 24 hr dose study; assay type: in vivo, rat
Description: Luteolin was also evaluated for its effect to reduce hyperglycemia in chronic Type 2 diabetic rats. In this study, the dose and frequency of Luteolin treatment was increased to compensate for the enhanced metabolism of the obese rat. First, a 24 hour baseline study was performed on 9 chronic Type 2 rats. […] These same rats were randomly assigned to 3 groups and given 50, 150 and 250 mg doses of Luteolin at three times during the 24 hr period (11 AM, 2 PM and 8 PM). Blood glucose analysis was evaluated every 2 hours.

[2] = tested on: cytotoxic T lymphocyte line CTL264; test: CTL cytotoxicity against 264 peptide-pulsed T2 target cells (calcein release); assay type: cell-based; details: for inhibition of calcein release: FIG. 3
Description: A cytotoxic T lymphocyte line (CTL—designated CTL264) specific for a peptide antigen (aa 264-272, referred to as the 264 peptide) derived from the tumor suppressor protein p53 was used as a […] to test if luteolin had any effect on CTL cytotoxicity against 264 peptide-pulsed T2 target cells. T2 target cells were pulsed with 264 peptide for 2 hours and labeled with Calcein-AM for 30 minutes and washed three times. Mixtures of T2 cells and CTL264 were incubated for 4 hours. 100 μL supernatants were transferred to a 96-well flat-bottom microtiter plates to read fluorescence (538 nm) to measure calcein release due to cell lysis.
The spontaneous calcein release in cytotoxic T Lymphocytes was determined by incubation of targets in RPMI-10. The maximal calcein release was determined by incubation of targets in Triton X-100. Data are reported as the mean of triplicate determinations.

[3] = tested on: chronic Type I (BBWor) diabetic rats; test: Blood glucose in chronic Type I (BBWor) diabetic rats; assay type: in vivo, rat; details: for blood glucose after treatment: 6 hours; for blood glucose before treatment: time 0; for decrease in blood glucose levels: within 6 hours of a single treatment (luteolin 3 mg intragastrically; PZI insulin subcutaneous)
Description: The effect of Luteolin treatment in chronic Type I (BBWor) diabetic rats was examined. In this study, lean male diabetic rats were randomly assigned to 3 treatment groups (3-4 rats/group). Each group received either: (1) 3 mg dose of luteolin intragastrically; (2) a subcutaneous injection of PZI insulin (0.9-1.2 mU/day); or (3) no treatment. Blood glucose was evaluated from time 0 through 6 hours. The data was expressed as average blood glucose relative to time post treatment.

[4] = tested on: obese Type II (BBZDR) diabetic rats; test: Blood glucose in Type II BBZDR rats, two weeks of treatment; assay type: in vivo, rat
Description: In this example, the dose of luteolin was standardized to 50 mg three times per day in the same group of Type II BBZDR rats from Example 5 over an extended period of treatment of two weeks. […] The data was expressed for each rat as a percentage change in blood glucose level relative to each individual pre-treatment level.

Kv1.3 channel = Kv1.3 channel (Homo sapiens, UniProt P22001); test: Inhibition of the Kv1.3 channel, patch clamp method; assay type: cell-based
Source text: Furthermore, the invention deals with ion channels that constitute a set of molecular targets through which these 3-deoxyflavonoids exert their biological effects. The flavonoid compounds of this invention can lower and stabilize blood glucose levels in Type-I and Type-II diabetics, and can also ameliorate symptoms of lupus erythematosus, an autoimmune disease affecting several organs. Type-I diabetes is an autoimmune disease in which autoreactive lymphocytes destroy pancreatic P-cells, while the etiology of Type-II diabetes is due to inadequate insulin production and decreased ability of insulin to affect its target end-organs. Since ion channels play a critical role in lymphocytes and in pancreatic β-cell signaling, it is most likely that at least some of the therapeutic effects of flavonoids may arise through blockade of ion channels. […] The non-toxic nature of these flavonoids in humans makes them attractive as nutraceuticals that could complement or replace existing medications and therapies. Inhibition of the Kv1.3 channel was performed utilizing the patch clamp method desctribed by […]. Biol. Chem. 276: 12249.

[5] = cited from earlier work
[6] = 50 mg three times per day for two weeks
[7] = fried onions, equivalent to 64 mg quercetin aglycone

Chain of Kv1.3 channel (P22001 whole entry): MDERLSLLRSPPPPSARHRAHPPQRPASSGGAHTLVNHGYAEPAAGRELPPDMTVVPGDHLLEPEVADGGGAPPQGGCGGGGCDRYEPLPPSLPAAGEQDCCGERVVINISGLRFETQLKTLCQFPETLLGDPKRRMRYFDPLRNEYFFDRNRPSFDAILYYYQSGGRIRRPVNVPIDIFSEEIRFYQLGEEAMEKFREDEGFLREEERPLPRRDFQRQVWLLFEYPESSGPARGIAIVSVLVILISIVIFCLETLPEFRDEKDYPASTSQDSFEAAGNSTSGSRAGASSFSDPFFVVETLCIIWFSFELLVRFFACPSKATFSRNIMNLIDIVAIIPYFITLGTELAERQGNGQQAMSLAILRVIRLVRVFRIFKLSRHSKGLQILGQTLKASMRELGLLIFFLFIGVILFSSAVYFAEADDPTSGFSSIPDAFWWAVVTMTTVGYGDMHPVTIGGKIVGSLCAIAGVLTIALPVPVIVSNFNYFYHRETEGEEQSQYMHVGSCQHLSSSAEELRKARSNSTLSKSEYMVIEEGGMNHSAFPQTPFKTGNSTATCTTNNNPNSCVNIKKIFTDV

With `O=c1cc(-c2ccc(O)c(O)c2)oc2cc(O)cc(O)c12` [luteolin, 3′,4′,5,7-tetrahydroxyflavone] the “decrease in blood glucose levels” value ([1]; 50 mg three times a day (150 mg total), within 24 hr) was 10.2%, the “drop in blood glucose” value ([1]; 150 mg three times (450 mg total), 24 hr) was 22.9% and the decrease in glucose ([1]; 250 mg three times (750 mg total), 24 hr) was 27.7%. For the same compound, the “blood glucose after treatment, one rat” value ([1]; intermediate dose, one rat, 18 hr) was 372 mg/dL, the “blood glucose before treatment, one rat” value ([1]; intermediate dose, one rat, start) was 777 mg/dL and the “reduction of blood glucose, one rat” value ([1]; intermediate dose, one rat, within 18 hr) was 52%. For the same compound, the “reduction of hyperglycemia over all doses” value ([1]; over a 24 hour period, 50-250 mg doses) was 10-28%, the “inhibition of CTL cytotoxicity against 264-pulsed T2 target cells” value ([2]; 4 hours incubation, FIG. 2) was “significantly inhibited” and the “inhibition of calcein release” value [2] was “inhibition of calcein release”. For the same compound, the “blood glucose after treatment” value [3] was 307 mg/dL, the “blood glucose before treatment” value [3] was 445 mg/dL and the “decrease in blood glucose levels” value [3] was 31%. For the same compound, the “average blood glucose after treatment” value [4, 6] was 389 mg/dL, the “average drop in blood glucose levels” value [4, 6] was 41.1% and the “average blood glucose pre-treatment” value ([4]; before treatment) was 660 mg/dL. The “increase in blood glucose, rat #3” value ([4]; rat #3 with esophagial fistula, two weeks) was 9.3%, the “block of Kv1.3 channel current vs. control” value (Kv1.3 channel; 20 uM concentration) was “approximately 25%” and the “block of Kv1.3 channel current vs. control” value (Kv1.3 channel; 100 uM concentration) was 100%.
For `O=c1c(O)c(-c2ccc(O)c(O)c2)oc2cc(O)cc(O)c12` [quercetin], the distribution phase half-life [5, 7] is listed as 3.8 h, the elimination phase half-life [5, 7] is listed as 16.8 h and the “time of peak plasma levels” value [5, 7] is listed as 2.9 h. The human absorption ([5]; oral) was 24%.
For `O=c1cc(-c2cc(O)c(O)c(O)c2)oc2cc(O)cc(O)c12` [tricetin], the “inhibition of calcein release” value [2] was “inhibition of calcein release”.
For insulin [reference compound], the “blood glucose after treatment” value [3] was 112 mg/dL, the “blood glucose before treatment” value [3] was 415 mg/dL and the “decrease in blood glucose levels” value [3] was 75%.
